According to PubChem BioAssay (NCI):
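Each compound was tested at five concentrations against cells in 96-well plates for 48 hours. Abbreviation: GI50, concentration required for 50% inhibition of growth. TGI marks complete inhibition of growth.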

Key:
Experiment in all cases: DTP human tumour cell line panel, 48 h
[1] = system: A498 renal
[2] = system: M14 melanoma
[3] = system: HT29 colon
[4] = system: OVCAR-5 ovarian
[5] = system: ACHN renal
[6] = system: HL-60(TB) leukemia
[7] = system: HOP-62 NSCLC
[8] = system: MALME-3M melanoma
[9] = system: NCI-H522 lung
[10] = system: CCRF-CEM leukemia
[11] = system: UACC-257 melanoma
[12] = system: 786-0 renal
[13] = system: TK-10 renal
[14] = system: U251 CNS
[15] = system: MDA-MB-435
[16] = system: OVCAR-8 ovarian
[17] = system: SW-620 colon
[18] = system: RPMI-8226 leukemia
[19] = system: CAKI-1 renal
[20] = system: OVCAR-4 ovarian
[21] = system: SK-MEL-2 melanoma
[22] = system: SF-268 CNS
[23] = system: KM12 colon
[24] = system: MDA-MB-468 breast
[25] = system: DU-145 prostate
[26] = system: UACC-62 melanoma
[27] = system: NCI-H23 lung
[28] = system: HCC-2998 colon
[29] = system: SN12C renal
[30] = system: MDA-MB-231 breast
[31] = system: NCI-H226 lung
[32] = system: T-47D breast
[33] = system: NCI-H460 lung
[34] = system: SK-OV-3 ovarian
[35] = system: BT-549 breast
[36] = system: SNB-19 CNS
[37] = system: A549 NSCLC
[38] = system: UO-31 renal
[39] = system: SNB-75 CNS
[40] = system: SF-295 CNS
[41] = system: HCT-116 colon
[42] = system: SK-MEL-28 melanoma
[43] = system: SR leukemia
[44] = system: NCI/ADR-RES ovarian
[45] = system: MCF7 breast
[46] = system: MOLT-4 leukemia
[47] = system: OVCAR-3 ovarian
[48] = system: EKVX NSCLC
[49] = system: LOX IMVI melanoma
[50] = system: COLO 205 colon
[51] = system: HCT-15 colon
[52] = system: SF-539 CNS
[53] = system: K-562 leukemia
[54] = system: SK-MEL-5 melanoma
[55] = system: IGROV1 ovarian
[56] = system: HOP-92 NSCLC
[57] = system: PC-3 prostate

COc1cc(/C=C/C(=O)c2cc(OC)c(OC)c(OC)c2)ccc1Oc1nc(Nc2ccc(F)cc2)nc(N(C)C)n1
GI50 [1]: 3.99 µM
TGI [1]: 15.2 µM
GI50 [2]: 2.83 µM
TGI [2]: 10.8 µM
GI50 [3]: 1.54 µM
TGI [3]: 3.55 µM
GI50 [4]: 1.48 µM
TGI [4]: 3.89 µM
GI50 [5]: 2.3 µM
TGI [5]: 7.48 µM
GI50 [6]: 2.21 µM
TGI [6]: 8.24 µM
GI50 [7]: 1.83 µM
TGI [7]: 3.88 µM
GI50 [8]: 1.75 µM
TGI [8]: 4.21 µM
GI50 [9]: 1.47 µM
TGI [9]: 3.24 µM
GI50 [10]: 2.19 µM
TGI [10]: > 100 µM
GI50 [11]: 2.83 µM
TGI [11]: 12.6 µM
GI50 [12]: 1.45 µM
TGI [12]: 3.23 µM
GI50 [13]: 2.53 µM
TGI [13]: 7.3 µM
GI50 [14]: 0.503 µM
TGI [14]: 2.43 µM
GI50 [15]: 1.63 µM
TGI [15]: 3.54 µM
GI50 [16]: 1.55 µM
TGI [16]: 6.57 µM
GI50 [17]: 1.55 µM
TGI [17]: 3.27 µM
GI50 [18]: 0.751 µM
TGI [18]: 5.21 µM
GI50 [19]: 1.98 µM
TGI [19]: 6.67 µM
GI50 [20]: 2.07 µM
TGI [20]: 10.6 µM
GI50 [21]: 1.69 µM
TGI [21]: 3.79 µM
GI50 [22]: 3.43 µM
TGI [22]: > 100 µM
GI50 [23]: 3.63 µM
TGI [23]: 88.6 µM
GI50 [24]: 1.35 µM
TGI [24]: 3.51 µM
GI50 [25]: 3.99 µM
TGI [25]: 18.7 µM
GI50 [26]: 1.41 µM
TGI [26]: 3 µM
GI50 [27]: 1.63 µM
TGI [27]: 3.63 µM
GI50 [28]: 2.03 µM
TGI [28]: 4.16 µM
GI50 [29]: 1.23 µM
TGI [29]: 2.73 µM
GI50 [30]: 1.48 µM
TGI [30]: 3.58 µM
GI50 [31]: 1.44 µM
TGI [31]: 3.23 µM
GI50 [32]: 1.87 µM
TGI [32]: 56.1 µM
GI50 [33]: 1.45 µM
TGI [33]: 3.3 µM
GI50 [34]: 8.42 µM
TGI [34]: 29.9 µM
GI50 [35]: 1.56 µM
TGI [35]: 3.2 µM
GI50 [36]: 1.86 µM
TGI [36]: 4.58 µM
GI50 [37]: 4.49 µM
TGI [37]: 19.2 µM
GI50 [38]: 1.12 µM
TGI [38]: 2.36 µM
GI50 [39]: 2.54 µM
TGI [39]: 21.1 µM
GI50 [40]: 1.98 µM
TGI [40]: 5.49 µM
GI50 [41]: 1.4 µM
TGI [41]: 3.18 µM
GI50 [42]: 1.8 µM
TGI [42]: 4.07 µM
GI50 [43]: 0.7 µM
TGI [43]: > 100 µM
GI50 [44]: 1.42 µM
TGI [44]: 3.39 µM
GI50 [45]: 1.06 µM
TGI [45]: 4.07 µM
GI50 [46]: 0.472 µM
TGI [46]: > 100 µM
GI50 [47]: 2.57 µM
TGI [47]: > 100 µM
GI50 [48]: 2.15 µM
TGI [48]: 9.12 µM
GI50 [49]: 0.478 µM
TGI [49]: 1.69 µM
GI50 [50]: 4.45 µM
TGI [50]: 16.8 µM
GI50 [51]: 1.18 µM
TGI [51]: 2.75 µM
GI50 [52]: 1.64 µM
TGI [52]: 3.09 µM
GI50 [53]: 1.4 µM
TGI [53]: > 100 µM
GI50 [54]: 2.16 µM
TGI [54]: 4.83 µM
GI50 [55]: 1.93 µM
TGI [55]: 4.49 µM
GI50 [56]: 1.67 µM
TGI [56]: 6.72 µM
GI50 [57]: 2.77 µM
TGI [57]: 30.9 µM
